Experiments:
[1] = CCK-8 cytotoxicity assay in HK2 cells; assay type: cell-based, human; settings: human, CCK-8, 24 h compound exposure, 3 to 1000 μM, ND: not detected, read-out: IC50 (μM), cytotoxic effects on HK2 cells in vitro
Description: (§1) This study systematically investigated the cytotoxic effects and structure-activity relationships of denitroaristolochic acid analogs (DAA-II, DAA-III, DAA-IV, DAA-V) on human renal cortical proximal tubular epithelial cells (HK2) using the cell counting kit-8 (CCK-8) assay. HK2 cells were maintained in Dulbecco’s modified eagle medium (DMEM) supplemented with 10% fetal bovine serum under standard culture conditions (37 °C, 5% CO2). At 80% confluence, cells were trypsinized and seeded into 96-well plates at a density of 1 × 10^4 cells/well, followed by a 4–6 h attachment period prior to compound exposure. Stock solutions ([…]) of each DAA were prepared in DMSO and serially diluted to final concentrations ranging from 3 to 1000 μM, with DMSO concentration strictly maintained at 0.5% (v/v) in all treatment groups. Experimental controls included AA-I as positive control and 0.5% DMSO-containing medium as vehicle control. Following 24 h compound exposure, cell viability was assessed using CCK-8 reagent according to manufacturer specifications: 10 μL CCK-8 solution was added to each well, followed by 2 h incubation under light-protected conditions. Absorbance was measured at 450 nm using a microplate reader, with morphological observations conducted via inverted phase-contrast microscopy.
(§2) This study systematically evaluated the cytotoxic effects of aristolochic acids (AAs) on HK2 cells (the HK2 cell lines were from the Cell Bank of the Chinese Academy of Sciences) using the CCK-8 assay. […] This finding provides novel insights into the toxicological mechanisms of aristolochic acid analogs, and their precise mode of action warrants further elucidation through integrated toxicological approaches, including metabolomic profiling, signaling pathway screening, and molecular docking studies.

[2] = system: HK2 cells; experiment: CCK-8 cytotoxicity assay in HK2 cells; assay type: cell-based, human; settings: CCK-8, 24 h compound exposure, 3 to 1000 μM
Description: as §1, §2

SMILES | cytotoxicity in human renal proximal tubular epithelial cells (result in words) [2] | IC50 [1] | also measured
COc1cccc2c1cc([N+](=O)[O-])c1c(C(=O)O)cc3c(c12)OCO3 [AA-I, aristolochic acid I, reference compound] | – | – | IC50 at 24 h [1]: 270 µM
O=C(O)c1cc2c(c3c1ccc1ccccc13)OCO2 [DAA-II, phenanthro [3,4-d][1,3]dioxole-5-carboxylic acid] | no detectable cytotoxicity | – | –
COc1ccc2ccc3c(C(=O)O)cc4c(c3c2c1)OCO4 [DAA-III, 10-Methoxyphenanthro [3,4-d][1,3]dioxole-5-carboxylic acid] | – | 371 µM | –
COc1cc(OC)c2ccc3c(C(=O)O)cc4c(c3c2c1)OCO4 [DAA-IV, 8,10-dimethoxyphenanthro [3,4-d][1,3]dioxole-5-carboxylic acid] | – | 515 µM | –
COc1cc2ccc3c(C(=O)O)cc4c(c3c2cc1OC)OCO4 [DAA-V, 9,10-Dimethoxyphenanthro [3,4-d][1,3]dioxole-5-carboxylic acid] | no detectable cytotoxicity | – | –

Reference: article PMC12293755, “Synthesis and Cytotoxicity Evaluation of Denitroaristolochic Acids: Structural Insights and Mechanistic Implications in Nephrotoxicity” (Biomolecules, 2025)
